Measurements from paper PMC4417150, “Selective inhibition of miR-21 by phage display screened peptide” (Nucleic Acids Research, 2015).
Peptide text beside a SMILES is read from it.

System: MCF-7 cells
Experiment: Quantitative uptake of FAM-conjugated peptide (flow cytometry)
Type: in vitro ADME
Conditions: FAM-conjugated peptides 1, 5, 10 µM; MCF-7, serum free media, 6 h, 37°C; FACS; duplicate
Experimental: Carboxyfluorescein (FAM)-conjugated peptide was added onto MCF-7 cells with ∼80% confluence in serum free media. Cells were then incubated at 37°C humidified incubator (5% CO2) for 6 h. Cells were washed twice with ice cold PBS containing 1mg/ml heparin, followed by one wash with trypan blue and two washes with ice cold PBS. Cells were trypsinised, followed by centrifugation at 700 g for 5 min at 4°C. Cell pellet was resuspended in ice cold PBS and FACS analysis was done in BD Accuri instrument. 10000 counts per sample was analyzed using BD Accuri C6 software.
As the peptide contains three proline residues, we reasoned that the peptide may have cell penetrating properties. To check the cell penetrating property, we FAM conjugated the peptides and monitored their uptake by flow cytometry.

Row | Compound | cell penetrating potential (uptake)
1 | CC(C)C[C@H](NC(=O)[C@H](C)N)C(=O)N[C@@H](Cc1c[nH]c2ccccc12)C(=O)N1CCC[C@H]1C(=O)N1CCC[C@H]1C(=O)N[C@@H](CC(N)=O)C(=O)N[C@@H](CC(C)C)C(=O)N[C@@H](Cc1c[nH]cn1)C(=O)N[C@@H](C)C(=O)N[C@@H](Cc1c[nH]c2ccccc12)C(=O)N[C@H](C(=O)N1CCC[C@H]1C(=O)O)C(C)C [wild-type peptide] (H-ALWPPNLHAWVP-OH) | clearly indicated cell penetrating potential
2 | LPPAPWNWAHVL [scrambled mutant] | clearly indicated cell penetrating potential
3 | PVWAHLNPPWLA [reverse mutant] | clearly indicated cell penetrating potential
